Data set [1] can be described thus: Oral bioavailability in human. Format: ADME, organism-based. The conditions noted are these: in vivo.
The next data set has as its system U2OS. Kind of data set: cells. As to conditions: Homo sapiens.
Data set [2] concerns the target T1, Serine-protein kinase ATM (Homo sapiens, UniProt Q13315). Kind of data set: Inhibition of ATM in human HeLa cells. In kind it is cell-based.
Data set [3] in a line: Inhibition of DNA-PK (unknown origin). Further details: species or system Homo sapiens.
Data set [4] can be described thus: Inhibition of PI3K (unknown origin). Further details: species or system Homo sapiens.
The target of data set [5] is Serine/threonine-protein kinase ATR (Homo sapiens, UniProt Q13535). Kind of data set: Inhibition of ATR (unknown origin).
The nature of data set [6]: Inhibition of PI4K (unknown origin). Further details: species or system Homo sapiens.
Data set [7] addresses Serine/threonine-protein kinase mTOR (Homo sapiens, UniProt P42345). Kind of data set: Inhibition of mTOR (unknown origin).
Data set [8] is described as follows: Solubility of compound in PBS buffer. Format: physicochemical.
The target in data set [9] is T1, Serine-protein kinase ATM. In words: Inhibition of ATM (unknown origin).

SMILES strings stand for the structures. In brackets after ≈: the same amount, converted by molar mass. Bounds are passed on as bounds.

The source of these data is ChEMBL document CHEMBL6127032, “Progress of ATM inhibitors: Opportunities and challenges” (Eur J Med Chem, 2024).

T1 sequence (Q13315 whole entry): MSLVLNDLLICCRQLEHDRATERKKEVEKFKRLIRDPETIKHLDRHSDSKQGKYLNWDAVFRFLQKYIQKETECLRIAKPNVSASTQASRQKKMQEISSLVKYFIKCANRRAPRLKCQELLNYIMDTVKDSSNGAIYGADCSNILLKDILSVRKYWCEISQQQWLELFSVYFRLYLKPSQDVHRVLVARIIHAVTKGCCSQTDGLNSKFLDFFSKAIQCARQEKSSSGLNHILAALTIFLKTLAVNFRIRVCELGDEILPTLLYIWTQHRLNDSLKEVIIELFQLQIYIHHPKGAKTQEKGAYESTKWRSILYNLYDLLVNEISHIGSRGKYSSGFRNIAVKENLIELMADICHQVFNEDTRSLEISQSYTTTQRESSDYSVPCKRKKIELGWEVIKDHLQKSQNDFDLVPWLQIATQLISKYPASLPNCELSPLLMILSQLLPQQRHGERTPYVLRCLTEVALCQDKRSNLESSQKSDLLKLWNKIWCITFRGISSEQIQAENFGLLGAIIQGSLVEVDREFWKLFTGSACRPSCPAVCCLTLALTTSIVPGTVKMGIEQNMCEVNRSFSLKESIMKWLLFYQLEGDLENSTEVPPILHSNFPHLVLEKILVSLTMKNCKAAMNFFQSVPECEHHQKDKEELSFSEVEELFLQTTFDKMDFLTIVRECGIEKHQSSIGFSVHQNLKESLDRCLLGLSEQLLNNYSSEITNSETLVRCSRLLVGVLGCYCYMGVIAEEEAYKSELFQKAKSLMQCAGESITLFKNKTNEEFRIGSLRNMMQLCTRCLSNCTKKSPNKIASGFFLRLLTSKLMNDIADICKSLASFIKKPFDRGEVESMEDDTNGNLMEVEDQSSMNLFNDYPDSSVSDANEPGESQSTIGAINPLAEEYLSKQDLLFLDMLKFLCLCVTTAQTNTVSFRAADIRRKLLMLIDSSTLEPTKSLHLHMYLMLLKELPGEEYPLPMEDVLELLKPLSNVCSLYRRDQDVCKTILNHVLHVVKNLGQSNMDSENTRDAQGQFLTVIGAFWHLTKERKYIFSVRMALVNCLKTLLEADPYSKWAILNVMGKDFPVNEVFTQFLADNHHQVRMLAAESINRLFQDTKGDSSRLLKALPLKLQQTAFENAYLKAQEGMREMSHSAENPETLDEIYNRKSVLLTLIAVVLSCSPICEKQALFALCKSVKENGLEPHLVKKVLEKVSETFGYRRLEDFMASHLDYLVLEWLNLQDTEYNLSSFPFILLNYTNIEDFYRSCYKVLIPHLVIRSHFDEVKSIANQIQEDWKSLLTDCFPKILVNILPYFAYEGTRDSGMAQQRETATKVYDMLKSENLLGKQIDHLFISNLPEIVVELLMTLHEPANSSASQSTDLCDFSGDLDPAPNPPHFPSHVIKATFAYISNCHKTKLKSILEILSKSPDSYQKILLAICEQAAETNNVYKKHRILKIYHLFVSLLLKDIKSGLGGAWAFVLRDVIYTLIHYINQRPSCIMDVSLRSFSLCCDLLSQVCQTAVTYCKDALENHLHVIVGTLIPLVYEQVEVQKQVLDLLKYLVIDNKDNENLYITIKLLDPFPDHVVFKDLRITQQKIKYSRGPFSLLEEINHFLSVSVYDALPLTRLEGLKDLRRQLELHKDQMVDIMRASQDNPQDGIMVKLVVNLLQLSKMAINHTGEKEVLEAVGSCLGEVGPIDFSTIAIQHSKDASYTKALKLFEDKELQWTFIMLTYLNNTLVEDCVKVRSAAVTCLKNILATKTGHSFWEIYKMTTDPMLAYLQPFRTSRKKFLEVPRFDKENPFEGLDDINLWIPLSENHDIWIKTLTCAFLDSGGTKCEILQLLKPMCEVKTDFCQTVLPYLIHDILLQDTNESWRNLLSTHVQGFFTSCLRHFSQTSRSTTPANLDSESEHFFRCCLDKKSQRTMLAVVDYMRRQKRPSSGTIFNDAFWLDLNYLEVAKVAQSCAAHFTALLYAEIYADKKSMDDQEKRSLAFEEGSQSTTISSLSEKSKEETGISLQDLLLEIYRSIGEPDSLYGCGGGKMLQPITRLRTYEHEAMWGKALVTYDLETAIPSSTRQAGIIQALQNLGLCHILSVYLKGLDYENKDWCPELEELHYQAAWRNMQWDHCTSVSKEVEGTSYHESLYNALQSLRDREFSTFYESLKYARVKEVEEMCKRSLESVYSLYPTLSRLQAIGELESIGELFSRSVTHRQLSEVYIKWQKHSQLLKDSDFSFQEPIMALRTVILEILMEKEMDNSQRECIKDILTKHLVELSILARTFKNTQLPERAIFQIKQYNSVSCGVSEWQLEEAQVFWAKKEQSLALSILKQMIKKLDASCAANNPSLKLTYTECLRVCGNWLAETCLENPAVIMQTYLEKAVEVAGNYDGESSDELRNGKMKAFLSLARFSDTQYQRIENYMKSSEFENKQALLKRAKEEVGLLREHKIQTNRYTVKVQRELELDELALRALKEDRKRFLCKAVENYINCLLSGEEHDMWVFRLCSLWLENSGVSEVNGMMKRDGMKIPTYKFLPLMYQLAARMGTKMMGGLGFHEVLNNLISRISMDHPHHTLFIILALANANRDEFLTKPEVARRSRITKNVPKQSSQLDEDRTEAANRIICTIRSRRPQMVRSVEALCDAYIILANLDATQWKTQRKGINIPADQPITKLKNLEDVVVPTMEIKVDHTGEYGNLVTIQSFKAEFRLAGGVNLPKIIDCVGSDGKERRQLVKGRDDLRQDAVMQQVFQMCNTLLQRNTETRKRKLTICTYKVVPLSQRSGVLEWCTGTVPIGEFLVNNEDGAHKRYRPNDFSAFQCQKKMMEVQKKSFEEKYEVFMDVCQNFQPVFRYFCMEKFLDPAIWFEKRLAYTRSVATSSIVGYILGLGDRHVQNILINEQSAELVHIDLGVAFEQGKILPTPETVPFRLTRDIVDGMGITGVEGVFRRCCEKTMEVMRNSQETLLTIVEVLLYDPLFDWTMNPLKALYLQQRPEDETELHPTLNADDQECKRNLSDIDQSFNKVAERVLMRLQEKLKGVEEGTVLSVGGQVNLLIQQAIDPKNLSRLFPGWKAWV

As usually defined, the bioavailability is dose-corrected exposure relative to a reference, in per cent. The low end stands for little systemic uptake, the high end for much systemic uptake. Compound `C[C@@H]1CN(CC(=O)Nc2ccc3c(c2)Cc2cccc(-c4cc(=O)cc(N5CCOCC5)o4)c2S3)C[C@H](C)O1` registered a bioavailability in [1] of 37%.
Usually IC50 stands for the midpoint of a concentration-inhibition curve. In the data set with U2OS, `O=c1cc(N2CCOCC2)cc(N2CCCCC[C@@H]2Cc2ccccc2)[nH]1` came in with an IC50 of 230 nM.
For `CN1CCN(CCC(=O)Nc2ccc3c(c2)Sc2cccc(-c4cc(=O)cc(N5CCOCC5)o4)c2S3)CC1`, the IC50 is 13 nM in [2]; 9100 nM in data set [3]; 10000 nM in [4]; above 100000 nM in [5]; above 100000 nM in [6]; above 10000 nM in [7].
One may read the solubility as the concentration that dissolves in the medium under given conditions. Low values mean a poorly soluble substance, high ones a readily soluble substance. For `COc1cc2ncc3c(c2cc1-c1cn(C)nc1C)n(-c1c(F)cncc1OC)c(=O)n3C` [LARTESERTIB], in data set [3], the midpoint of inhibition, the IC50, lay at 600 nM. In data set [8], this compound came in with a solubility of 93 µg/mL (≈ 207 µM).
In turn, `CC(C)n1c(=O)n(C)c2cnc3cc(F)c(-c4ccc(OCCCN5CCCCC5)nc4)cc3c21` [AZD-1390] returned an IC50 in data set [9] of 7.8 nM.
